Assay results reported in patent EP4682156A1, “LINKER AND DRUG CONJUGATE USING SAME, AND ANTIBODY-DRUG CONJUGATE AND USE THEREOF” (Shanghai Affinity Biopharmaceutical Co., Ltd., priority 2023, dated 2024).
*1 amine or outer side, *2 acyl side, *3 side chain or, on linkers, in order; H or OH if unused. Where a SMILES comes first, the peptide text is derived from it. [ ]: non-standard residue; d: D form. The star is where a group is joined. Exatecan = CC[C@@]1(O)C(=O)OCc2c1cc1n(c2=O)Cc2c-1nc1cc(F)c(C)c3c1c2[C@@H](N*)CC3; Hexanoyl(6-maleimido) = O=C1C=CC(=O)N1CCCCCC(=O)*; Propanoyl(3-maleimido) = O=C1C=CC(=O)N1CCC(=O)*; PEG6 = NCCOCCOCCOCCOCCOCCOCCC(=O)O; NHCH2OCH2CO = O=C(COCN[*:1])[*:2]

What was measured:
[1] = Activation in CT26 tumor homogenate (tumor homogenate 2); conditions: tumor homogenate 2 (CT26), 20 hours, 37°C, pH 5.0
[2] = Activation in human gastric cancer tumor homogenate (tumor homogenate 1); conditions: tumor homogenate 1, after 20 hours, 37°C, pH 5.0
cathepsin L [3] = biological target: T1, cathepsin L (Homo sapiens, UniProt P07711); assay: Enzymatic cleavage by cathepsin L, released DXD quantified by HPLC; format: biochemical; conditions: within 20 h
T1 sequence (P07711 114-333): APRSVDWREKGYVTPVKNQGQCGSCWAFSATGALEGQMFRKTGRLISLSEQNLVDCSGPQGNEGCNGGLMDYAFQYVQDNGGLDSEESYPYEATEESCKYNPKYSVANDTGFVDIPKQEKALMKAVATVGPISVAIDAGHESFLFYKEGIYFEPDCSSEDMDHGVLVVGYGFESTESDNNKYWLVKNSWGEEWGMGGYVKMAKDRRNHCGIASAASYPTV
Description: (§1) About 25 mg of DXD reference substance was accurately weighed and placed in a 5 mL volumetric flask. DMSO was added to the scale mark and the mixture was mixed to prepare a 10 mM solution which was marked as the standard stock solution. The standard stock solution was taken and prepared into standard solutions with concentrations of 20nmol/mL, 10nmol/mL, 5nmol/mL, 2nmol/mL, 1nmol/mL, and 0.2nmol/mL. 10uL was taken and injected into HPLC, the peak area was recorded. The linear equation was calculated by using the peak area as the ordinate and the concentration as the abscissa.
(§2) • chromatographic column: Agilent Eclipse Plus C18 5um, 4.6*250mm • Fluorescence detector: […] • Mobile phase A: 0.1%TFA/H2O B: ACN • Flow rate: 1ml/min • Injection volume: 10uL
• Assay Buffer: 50mM MES, 5mM DTT, 1mM EDTA, 0.005% (w/v) Brij-35, pH6.0. • Cathepsin L: 100 µg/mL in assay buffer, incubated on ice for 15 min.
Preparation of sample solution: An appropriate amount of L-AM-DXD was weighed and added with a certain amount of DMSO solution to make the concentration of the stock solution being 10 umol/mL. Then 10uL of the stock solution was taken and added with 80uL of DMSO to dilute to 1 umol/mL. Then pure water was added in a ratio of 1:4 to dilute the sample solution to a concentration of 0.2 umol/mL. […]

[4] = Stability in human plasma; format: in vitro ADME; conditions: within 20 hours
Description: • PBS buffer: pH = 7.2 • Protein precipitation agent: DMSO/MEOH = 1:1
(§3) Preparation of sample solution: An appropriate amount of MI-PEG6-GGFL-AM-DXD and GGFG-AM-DXD were weighed and added with a certain amount of DMSO solution to make the concentration of the stock solution thereof being 10 umol/mL. Then 10uL of the stock solution was taken and added with 80uL of DMSO to dilute to 1 umol/mL. Then pure water was added in a ratio of 1:4 to dilute the sample solution to a concentration of 0.2 umol/mL.
An appropriate amount of sample was weighed and prepared into a 1 mM solution with DMSO. Human plasma was added at a volume ratio of 1:9 and the solution was incubated in a 37°C incubator. Samples were taken after 0, 2, 4, 6, and 20 h. DMSO/MEOH (1:1) was added at a volume ratio of 1:3 to remove protein. The solution was centrifuged at 12,000 rpm for 5 min and the supernatant was collected. The HPLC method was as described in 1.2 of Example 4.

Human Fibrosarcoma = assay: Drug efficacy study of drug conjugates on human fibrosarcoma tumor model; format: in vivo, Nude mice
cathepsin L [5] = biological target: T1, cathepsin L; assay: Enzymatic cleavage by cathepsin L, released DXD quantified by HPLC; format: biochemical; conditions: pH 6
cathepsin B = cathepsin B (Homo sapiens, UniProt P07858); assay: Enzymatic cleavage by cathepsin B, released DXD quantified by HPLC; format: biochemical; conditions: 20 hours of action of cathepsin B, 37°C, pH 5.0
Description: as §1, §2
• Activation buffer: 25mM MES, 5mM DTT, pH 5.0 • Assay buffer: 25 mM MES, pH 5.0. • Cathepsin B: 100 µg/mL in activation buffer, incubated at room temperature for 15 minutes
Preparation of sample solution: An appropriate amount of MI-PEG6-GGFL-AM-DXD and EMC-GGFG-AM-DXD were respectively weighed and added with a certain amount of DMSO solution to make the concentration of the stock solution thereof being 10 umol/mL. Then 10uL of the stock solution was respectively taken and added with 80uL of DMSO to dilute to 1 umol/mL. […]

[6] = Stability in monkey heart homogenate; format: in vitro ADME; conditions: 20 hours, 37°C, pH 5.0
Description: (§4) • Assay buffer: 25 mM MES, pH 5.0. • Protein precipitation agent: DMSO/MEOH = 1:1
as §3, with “and EMC-GGFG-AM-DXD” for “and GGFG-AM-DXD”, “solution were” for “solution was”
(§5) An appropriate amount of fast frozen heart by liquid nitrogen was placed in a 4 mL EP tube and weighed. Assay buffer with pH 5.0 was added at a mass-to-volume ratio of 1:5. The tissue was homogenized using a tissue grinder for 3 min. The heart homogenate was then centrifuged at 12,000 rpm for 5 min. The supernatant was collected and stored in a -40°C refrigerator for later use.
(§6) The sample solution and the heart homogenate were respectively taken at a volume ratio of 1:9 and shaken thoroughly. Another sample solution and buffer solution (pH 5.0) were also shaken thoroughly at a volume ratio of 1:9 as a blank control solution. The solution was placed in a 37°C constant temperature water bath. 30uL was taken at 0h, 2h, 4h, and 20h, and added with 90uL of protein precipitation agent and shaken thoroughly. […]

[7] = Stability in monkey liver homogenate; format: in vitro ADME; conditions: 20 hours, 37°C, pH 5.0
Description: as §4
as §3, with “and EMC-GGFG-AM-DXD” for “and GGFG-AM-DXD”, “solution were” for “solution was”
as §5, with “liver” for “heart”
as §6, with “liver” for “heart”

[8] = Stability in human plasma; conditions: 20 hours, 37°C
[9] = 5 µmol/kg (1/10 MTD) once a week for 3 weeks, Day 20

CC[C@@]1(O)C(=O)OCc2c1cc1n(c2=O)Cc2c-1nc1cc(F)c(C)c3c1c2[C@@H](NC(=O)COCNC(=O)[C@H](CC(C)C)NC(=O)[C@H](Cc1ccccc1)NC(=O)CNC(=O)CNC(=O)CCOCCOCCOCCOCCOCCOCCNC(=O)CCN1C(=O)C=CC1=O)CC3 [GGFL-AM-DXD] ({Propanoyl(3-maleimido)-PEG6}-GGFL[NHCH2OCH2CO]-Exatecan)
DXD produced, share of the substrate [1]: 98.7% | DXD produced, share of the substrate [2]: 94.2%

CC[C@@]1(O)C(=O)OCc2c1cc1n(c2=O)Cc2c-1nc1cc(F)c(C)c3c1c2[C@@H](NC(=O)COCNC(=O)[C@H](CC(C)C)NC(=O)[C@H](Cc1ccccc1)NC(=O)CNC(=O)CNC(=O)CCOCCOCCOCCOCCOCCOCCNC(=O)CCN1C(=O)C=CC1=O)CC3 [S7, MI-PEG6-GGFL-AM-DXd] ({Propanoyl(3-maleimido)-PEG6}-GGFL[NHCH2OCH2CO]-Exatecan)
Enzymatic cleavage efficiency % (cathepsin L [3]): 98.3% | Generated load % [4]: 1.7% | Substrate content % [4]: 98.3% | Anti-tumor rate% Day 20 (Human Fibrosarcoma; [9]): 98% | Tumor volume(mm^3) Day 20 (Human Fibrosarcoma; [9]): 20 mm^3 | treatment efficacy compared with DXd (Human Fibrosarcoma; same dose 5 µmol/kg once a week for 3 weeks): significantly improved treatment efficacy

CC[C@@]1(O)C(=O)OCc2c1cc1n(c2=O)Cc2c-1nc1cc(F)c(C)c3c1c2[C@@H](NC(=O)COCNC(=O)CNC(=O)[C@H](Cc1ccccc1)NC(=O)CNC(=O)CNC(=O)CCCCCN1C(=O)C=CC1=O)CC3 [EMC-GGFG-AM-DXD, reference compound] ({Hexanoyl(6-maleimido)}-GGFG[NHCH2OCH2CO]-Exatecan)
DXD produced, share of the reaction substrate (enzymatic cleavage activation efficiency) (cathepsin L [5]): 27.8% | DXD produced by enzymatic cleavage, share of the reaction substrate (cathepsin B): 45.2% | DXD produced, share of the substrate [6]: 7.41% | DXD produced, share of the substrate [7]: 27.6% | DXD produced, share of the substrate [8]: 2.88% | substrate contents [8]: 97.1%
